Laboratory results reported in ChEMBL document CHEMBL1157539, “Thousands of chemical starting points for antimalarial lead identification” (Nature, 2010).

The compounds below were run on Plasmodium falciparum (assay: GSK_TCMDC: Inhibition of Plasmodium falciparum 3D7 in whole erythrocytes, using parasite LDH activity as an index of growth.). Settings: Plasmodium falciparum, 3D7.
Assay type: functional, organism-based

Row | Compound | XC50 [nM]
1 | CCN(c1ccc(O)c(CN2CCCCC2)c1)c1ccc([N+](=O)[O-])cn1 | 886
2 | CN1CCN(c2ccc(CNc3ccc4ncc(-c5ccc(OC(F)(F)F)cc5)n4n3)cc2)CC1 | 834
3 | Cc1cc(Nc2ccc(Cl)cc2)n2nc(C(F)(F)F)nc2n1 | 117
4 | O=C(Nc1ccccc1)N(Cc1cccc(-c2cccc(CNCCc3ccccc3)c2)c1)C1CCN(Cc2ccccc2)CC1 | 307
5 | CC12CCC(C(=O)N(CC(O)Cn3c4ccc(Cl)cc4c4cc(Cl)ccc43)C1=O)C2(C)C (centres undefined) | 844
6 | Clc1ccc(-c2nc3cc(-c4ccc5nc(-c6ccc(Cl)cc6)[nH]c5c4)ccc3[nH]2)cc1 | 241
7 | O=C(c1cc(C(=O)Nc2ccc(F)cc2)c(=O)n(-c2ccc(F)cc2)c1)c1cc(Cl)ccc1O | 219
8 | CC(CNC1CCN(CCn2c(=O)ccc3ccc(F)cc32)CC1)c1ccccc1 (centres undefined) | 1270
9 | O=C1O[C@H](c2ccccc2)[C@H](c2ccccc2)N(C(=O)OCc2ccccc2)[C@H]1Cc1ccccc1C1CCCC1 | 59.1
10 | O=[N+]([O-])c1cccc(CNCC2CCC(CNCc3cccc([N+](=O)[O-])c3)CC2)c1 (centres undefined) | 138
11 | Cc1ccc(O)cc1Nc1ccnc2cc(-c3nccs3)ccc12 | 879
12 | CNC(=O)c1ccc2nc(C3CC3)n(CC3CCN(S(=O)(=O)c4cccc(Cl)c4)CC3)c2c1 | 651
13 | CC(C)NCC(O)Cn1c2ccc(Br)cc2c2cc(Br)ccc21 (centres undefined) | 451
14 | O=C(/C=C/c1ccc(Cl)c(Cl)c1)NCCCCCN1CCC(NC(=O)Nc2ccc(C(F)(F)F)cc2)C1 (centres undefined) | 513
15 | Nc1nc(N)c2c(Cl)c(N(Cc3ccccc3)Cc3ccccc3)ccc2n1 | 192
16 | N=C(N)Nc1nc(-c2cc(NC(=O)C(F)(F)F)cc([N+](=O)[O-])c2)cs1 | 781
17 | COc1ccc2c(CNCCCCCCNCc3c(OC)ccc4cc(OC)ccc34)c(OC)ccc2c1 | 560
18 | Oc1ccc(OCc2ccccn2)cc1 | 980
19 | Clc1ccc(OCCC2CCN(CCCCCCN3CCCCC3)CC2)cc1Cl | 1140
20 | O=C(NCC1CC1)C1CCN(C(c2ccc(Cl)cc2)c2ccc(Cl)cc2)CC1 | 190
21 | CC1(C)N=C(N)N=C(Nc2ccc(Cl)cc2)N1 | 336
22 | Cc1[nH]c(C)c(-c2ccc(-c3ccccc3)nc2)c(=O)c1Br | 661
23 | O=C1Nc2cccc3c2C1(CCCCCN1CC=C(c2c[nH]c4ccccc24)CC1)CCC3 (centres undefined) | 740
24 | CNC(=O)c1cnc(Nc2ccc(N3CCOCC3)cc2)nc1Nc1cccc(O)c1 | 808
25 | COc1ccc(-c2ccc(NC(=O)c3cccc(C#N)c3)cc2)cc1CN1CCCN(C)CC1 | 293

Row | Compound | XC50 [nM]
26 | CO/C(=C\C=C\c1cc2cc(Cl)c(Cl)cc2[nH]1)C(=O)NCCN1CCCCC1 | 1400
27 | CCOc1ccc(C(C)NC(=O)Nc2ccccc2)cc1OCC (centres undefined) | 901
28 | O=C(Nc1cccc2ccccc12)N1CCc2cc3nccc(N4CCN5CCC[C@H]5C4)c3cc21 | 889
29 | CCc1cc(N2CCN(c3ccccc3F)CC2)nc(SCc2ccc(C(=O)NC3CC3)o2)n1 | 892
30 | CC(Cc1ccc(S(=O)(=O)N(C(C)C)C(C)C)cc1)NCC(O)c1cccc(C(F)(F)F)c1 (centres undefined) | 685
31 | Cc1nc(-c2ccc(-c3ccc(NC(=O)Nc4ccc(I)c(OCCN(C)C)c4)cc3)c(C)c2)no1 | 372
32 | CNCCNCc1ccc(-c2ccc(-c3nc4cc(C(F)(F)F)ccc4[nH]3)s2)cc1 | 604
33 | Cc1nc2ccc3ccc(CNc4ccc(C(=O)N[C@@H](CCC(=O)O)C(=O)N[C@@H](Cc5cccs5)C(=O)O)c(F)c4)cc3c2c(=O)[nH]1 | 787
34 | C=C(NC(=O)C1CCCCC1)C(=O)OC | 849
35 | CCCCCCCc1c(C)nc2c(OC)cccc2c1O | 921
36 | COc1ccc(Nc2nccc(-c3c(-c4cccc(NC(=O)c5c(F)cccc5F)c4)nn4ccccc34)n2)cc1Cl | 284
37 | OCCNc1nc(Nc2ccc(Cl)cc2)nc2ccccc12 | 708
38 | COc1ccc(-c2ccc(NC(=O)c3cccc(Cl)c3)cc2)cc1CN1CCC(O)CC1 | 712
39 | COc1ccc2nccc([C@@H](O)CN3CCC(NC(=O)c4ccc5cc[nH]c5c4)CC3)c2c1 | 969
40 | CC(=O)Nc1ccc(C(=O)Nc2ccc(-c3cccc(-c4nc5cc(C(F)(F)F)ccc5[nH]4)c3)cc2)cn1 | 111
41 | CCNCCCC(C)Nc1ccnc2cc(Cl)ccc12 (centres undefined) | 200
42 | CCN(CCCN1CCCCC1)c1cc(C)nc(Nc2cccc(C(F)(F)F)c2C)n1 | 609
43 | N#Cc1cncc(-c2nc3c(N4CCN(c5cnccn5)CC4)cccc3n2CCNCc2ccccc2)c1 | 912
44 | COc1ccc2nc(-c3ccc(C(=O)NCCCN4CCN(c5cc(Cl)ccc5OC)CC4)cc3OC)[nH]c2c1 | 872
45 | COc1ccc(CCN2CCC(Nc3nc4ccccc4n3CCc3ccc(OC)cc3)CC2)cc1 | 657
46 | Cc1cccc2nc(-c3cccc(-c4cccc(NC(=O)CCc5c[nH]cn5)c4)c3)[nH]c12 | 553
47 | COc1ccc(-c2ccc(NC(=O)c3ccc(Cl)cc3)cc2)cc1CN1CCC(O)CC1 | 1090
48 | c1cc(CN2CCCCC2)cc(-c2ccc(-c3nc4ccccc4[nH]3)s2)c1 | 869
49 | COc1cc(C(=O)Nc2cccc(-c3nc4ccccc4[nH]3)c2)cc(OC)c1OC | 723
50 | Cc1[nH]c2cc(Cl)ccc2c1C1=CCN(CCN2CCOc3c(Br)cccc3C2=O)CC1 | 873

Row | Compound | XC50 [nM]
51 | CC1CN(Cc2cccc(C#N)c2)CCN1c1ccc(NC(=O)c2cccs2)cc1 (centres undefined) | 675
52 | CN(CCN(C)CC(O)c1ccc(Cl)c(Cl)c1)CC(O)c1ccc(Cl)c(Cl)c1 (centres undefined) | 1100
53 | O=C(NCCCc1ccccc1)c1csc(C2CCCN(C(=O)c3ccc(O)c(-c4ccccc4)c3)C2)n1 (centres undefined) | 913
54 | Cc1nc(C)c(-c2ccc(Oc3cccc(OC(F)(F)F)c3)cc2)c(O)c1Br | 17.1
55 | c1ccc(CCNCc2ccc(-c3cccc(CNc4ccc5ncccc5c4)c3)cc2)cc1 | 926
56 | Cc1[nH]c2cc(F)ccc2c1C1=CCN(CCCCC2(C)C(=O)Nc3ccccc32)CC1 (centres undefined) | 292
57 | CO/N=C(\C)c1ccc2c(c1)CCN(CCC1CCC(NC(=O)c3cccc(-c4noc(C)n4)c3)CC1)CC2 (centres undefined) | 244
58 | CCCCCCCN1CC[C@@H](CCCc2ccnc3ccc(OCC4CCCNC4)cc23)[C@@H](CC)C1 (some centres undefined) | 625
59 | CON=Cc1sc(CNCCCN=c2cc(O)c3ccccc3[nH]2)c(C)c1Br | 962
60 | COc1ccc2[nH]ccc(=NN=CC=Cc3ccccc3)c2c1 | 743
61 | CCCCn1c(C)c(C(=O)OCC)c2cc(OC(C)=O)c(Br)cc21 | 625
62 | CCNc1cc(C(=O)N[C@@H](Cc2ccccc2)[C@H](O)CNC23CC4CC(CC(C4)C2)C3)cc(N2CCCCS2(=O)=O)c1 | 219
63 | CN1CCCN(c2ccnc3cc4c(cc23)N(C(=O)c2ccc(Cl)cc2Cl)CC4)CC1 | 812
64 | CC1(C)NC(N)=NC(=N)N1OCCCc1cc(Cl)c(Cl)cc1Cl | 3.2
65 | CC(CN(C)C)C(=O)Nc1cccc(-c2cccc(-c3nc4ccccc4[nH]3)c2)c1 (centres undefined) | 1060
66 | CCCOc1cc2c(cc1OCCC)C(C=Cc1ccc(Cl)cc1Cl)=NC(C)C2 (centres undefined) | 370
67 | CC(C)CNCc1cccc(-c2cccc(CNC3CCN(Cc4ccccc4)CC3)c2)c1 | 183
68 | N=C(NCC1CC1c1ccccc1)c1cccc(C(=N)NCC2CC2c2ccccc2)n1 (centres undefined) | 1760
69 | COc1cc(NC(=O)c2cccs2)c(OC)cc1NC(=O)Nc1cccc(Cl)c1 | 1000
70 | Cc1nc(-c2nc(N3CCC(C(N)=O)CC3)ncc2-c2ccsc2)sc1C | 902
71 | OC1CCCN(Cc2ccc(-c3cccc(-c4nc5cc(F)ccc5[nH]4)c3)cc2)C1 (centres undefined) | 868
72 | O=C(NC1CCN(Cc2ccccc2)CC1)c1ccc(-c2nc3cc(Cl)c(F)cc3[nH]2)s1 | 306
73 | CCn1nc(C(=O)NC2CCOc3ccccc32)c2ccccc2c1=O (centres undefined) | 1230
74 | CCN(CCO)Cc1ccc(-c2ccc(NS(=O)(=O)c3cccc4cccnc34)cc2)cc1 | 985
75 | CC(O)C1CCCCN1C(=O)c1ccc(-c2ccc(-c3nc4ccccc4[nH]3)s2)cc1 (centres undefined) | 966

Row | Compound | XC50 [nM]
76 | Oc1cccc(Nc2nc(NCc3ccccc3)c3ccccc3n2)c1 | 41.3
77 | Cc1nc(NC(=N)N)nc2cc3c(cc12)CCC3 | 916
78 | CC(Cc1ccc(NC(=O)CCCc2ccccc2)cc1)NCCc1cccc(Cl)c1 (centres undefined) | 945
79 | N#Cc1ccc(-c2ccc(C(=O)NCCCCN3CCC(c4ccc5c(c4OCC(N)=O)CCCC5)CC3)cc2)cc1 | 984
80 | COc1cc(C(=O)NCCCN2CCN(c3cccc(Cl)c3)CC2)ccc1-c1nc2cc(Cl)c(F)cc2[nH]1 | 1020
81 | CN1CCN(Cc2ccc(-c3ccc4c(Nc5ccc(Oc6ccccn6)cc5)ccnc4c3)o2)CC1 | 145
82 | CCCC(CNCc1cccc(OC(F)(F)F)c1)CNc1cc(=O)c2ccccc2[nH]1 (centres undefined) | 556
83 | Cc1ccc(-c2nn3c(O)c4c(nc3c2C)CCCC4)cc1 | 217
84 | Cc1cc(N[C@@H](Cc2ccccc2)C(=O)NCc2cccs2)nc(Nc2ccccc2)n1 | 1240
85 | O=C(NC1CC1)c1ccc(N2CCN(Cc3ccc(Cl)cc3)CC2)nc1 | 1340
86 | Cc1ccc(F)cc1S(=O)(=O)NCC(C)c1ccc(NC(=O)Nc2cccc(F)c2)cc1 (centres undefined) | 973
87 | CN1CCN(CCCN(Cc2cccc(-c3ccc(CNCCc4ccccc4)cc3)c2)C(=O)c2cccs2)CC1 | 716
88 | COc1ccc(Oc2cnc(N)nc2N)c(C(C)C)c1 | 740
89 | NC1=NC(c2ccccc2)(c2ccccc2)C(=O)N1Cc1ccccc1Br | 865
90 | Cc1cccc2nc(-c3cccc(-c4cccc(NC(=O)Cc5ccc[n+]([O-])c5)c4)c3)[nH]c12 | 635
91 | O=C(Nc1ccc(-c2ccc(-c3nc4ccccc4[nH]3)s2)cc1)Nc1ccsc1 | 279
92 | O=C(Nc1ccc2c(ccn2C2CCCN(Cc3cc(F)cc(F)c3F)CC2)c1)c1ccco1 (centres undefined) | 651
93 | Cc1cc(=NN=CC=Cc2ccccc2)c2ccc(F)cc2[nH]1 | 590
94 | Cc1cc(N2CCCC2)nc(Nc2ccc(NC(=O)COc3ccccc3)cc2)n1 | 647
95 | N=c1n(CCN2CCCCC2)c2ccccc2n1CC(=O)c1cccc([N+](=O)[O-])c1 | 879
96 | CCCN1CCC(c2c[nH]c3ccc(NC(=O)Nc4cccc(Cl)c4Cl)cc23)CC1 | 815
97 | Oc1cccc2c1CC(NCc1ccccc1)CC2 (centres undefined) | 887
98 | CC(C)C[C@H](NC(=O)c1ccc(OCCN2CCOCC2)cc1)C(=O)N[C@H](/C=N/NC(=O)c1ccccc1)CCc1ccccc1 | 62.1
99 | Cc1nnc2c(NC(=O)NC3CCCC3)cc3ccc(-c4cccc(CN(C)C)c4)cc3n12 | 1160
